Experimental data published in EP4806912A1, “DUAL AGONIST COMPOUND” (Chengdu Aoda Biotechnology Co., Ltd, priority 2023, dated 2025).

Tests used:
[1] = molecular target: T1, GCG-R (Homo sapiens, UniProt P47871); experiment: GCG activity test (cAMP, chemiluminescence, CHO-K1 cell line stably expressing GCG-R); type: cell-based; conditions: relative luminescence units, read-out: GCG activity [EC50(nmol)]
T1 construct: expressed in transfected cells; host or cells: CHO-K1
Method: (§1) Upon stimulation by a specific agonist, GCG-R activates the intracellular adenylate cyclase signaling pathway, resulting in an increase in cAMP levels and ultimately leading to insulin production and secretion. A cell line stably transfected with GCG-R was stimulated with test compounds, thereby rapidly increasing intracellular cAMP levels. The relative luminescence units (RLU) of cells stimulated at various concentrations were measured by a chemiluminescence method, and the EC50 value of the agonist was calculated accordingly. This activity assay method is currently a commonly used method for evaluating GCG receptor agonist activity both domestically and internationally.
A CHO-K1 cell line stably expressing GCG-R was used. The stable cells were stimulated with agonists at different concentrations, and the relative luminescence units after stimulation at each concentration were measured to calculate the EC50 value of the agonist.

[2] = molecular target: T2, GLP-1R (Homo sapiens, UniProt P43220); experiment: GLP-1 activity test (cAMP, chemiluminescence, CHO-K1 cell line stably expressing GLP-1R); type: cell-based; conditions: relative luminescence units, read-out: GLP-1 activity [EC50(pmol)]
T2 construct: expressed in transfected cells; host or cells: CHO-K1
Method: as §1, with “GLP-1R” for “GCG-R”, “test” for “assay”, “GLP-1” for “GCG”
A CHO-K1 cell line stably expressing GLP-1R was used. The stable cells were stimulated with agonists at different concentrations, and the relative luminescence units after stimulation at each concentration were measured to calculate the EC50 value of the agonist.

T1 sequence (P47871 26-477, species assumed): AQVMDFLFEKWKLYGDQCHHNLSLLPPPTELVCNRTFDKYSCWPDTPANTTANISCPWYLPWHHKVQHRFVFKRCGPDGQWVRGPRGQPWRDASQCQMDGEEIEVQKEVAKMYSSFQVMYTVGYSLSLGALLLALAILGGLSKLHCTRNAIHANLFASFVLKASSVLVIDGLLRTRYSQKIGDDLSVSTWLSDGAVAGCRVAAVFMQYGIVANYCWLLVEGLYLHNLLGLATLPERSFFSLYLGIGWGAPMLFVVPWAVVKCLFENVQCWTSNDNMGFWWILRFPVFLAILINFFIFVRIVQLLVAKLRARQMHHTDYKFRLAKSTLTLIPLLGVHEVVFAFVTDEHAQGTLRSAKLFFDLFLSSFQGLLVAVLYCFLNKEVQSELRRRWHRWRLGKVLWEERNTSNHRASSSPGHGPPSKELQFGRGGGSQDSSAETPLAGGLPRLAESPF
T2 sequence (P43220 24-463, species assumed): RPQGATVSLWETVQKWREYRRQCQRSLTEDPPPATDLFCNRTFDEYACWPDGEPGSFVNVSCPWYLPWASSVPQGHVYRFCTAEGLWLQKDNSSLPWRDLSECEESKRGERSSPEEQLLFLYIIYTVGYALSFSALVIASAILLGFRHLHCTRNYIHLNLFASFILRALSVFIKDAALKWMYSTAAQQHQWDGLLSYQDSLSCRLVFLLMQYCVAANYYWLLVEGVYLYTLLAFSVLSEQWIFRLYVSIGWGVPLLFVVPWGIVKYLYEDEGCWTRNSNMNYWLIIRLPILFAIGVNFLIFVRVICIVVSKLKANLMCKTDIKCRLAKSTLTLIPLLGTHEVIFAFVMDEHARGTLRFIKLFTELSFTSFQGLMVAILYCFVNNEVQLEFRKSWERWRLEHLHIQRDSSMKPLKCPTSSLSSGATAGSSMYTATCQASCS

Compound: CC(C)C[C@H](NC(=O)[C@H](CC(C)C)NC(=O)[C@H](Cc1c[nH]c2ccccc12)NC(=O)[C@H](CCC(=O)O)NC(=O)[C@@H](NC(=O)[C@H](Cc1ccccc1)NC(=O)[C@H](CCC(=O)O)NC(=O)[C@H](CCCCNC(=O)COCCOCCOCCOCCOCCNC(=O)CCCC[C@H](NC(=O)CCCCCCCCCCCCCCCCCCC(=O)O)C(=O)O)NC(=O)[C@H](C)NC(=O)[C@H](CCCCN)NC(=O)[C@H](CCCCN)NC(=O)[C@H](CCC(=O)O)NC(=O)[C@H](CC(=O)O)NC(=O)[C@H](CC(C)C)NC(=O)[C@H](Cc1ccc(O)cc1)NC(=O)[C@H](CCCCN)NC(=O)[C@H](CO)NC(=O)[C@H](Cc1ccc(O)cc1)NC(=O)[C@H](CC(=O)O)NC(=O)[C@H](CO)NC(=O)[C@@H](NC(=O)C(C)(Cc1ccccc1F)NC(=O)[C@@H](NC(=O)CNC(=O)[C@H](CCC(N)=O)NC(=O)C(C)(C)NC(=O)[C@@H](N)Cc1c[nH]cn1)[C@@H](C)O)[C@@H](C)O)C(C)C)C(=O)N[C@@H](CCC(=O)O)C(=O)NCCCCC(=O)N1CCC[C@H]1C(=O)N[C@@H](CO)C(=O)N[C@@H](CO)C(=O)NCC(=O)N[C@@H](C)C(=O)N1CCC[C@H]1C(=O)N1CCC[C@H]1C(=O)N1CCC[C@H]1C(=O)N[C@@H](CO)C(N)=O (stereo partly drawn) [Compound 11]
- EC50 [1]: 1.5 nM
- EC50 [2]: 0.0872 nM

Compound: CC(C)C[C@H](NC(=O)[C@H](CC(C)C)NC(=O)[C@H](Cc1c[nH]c2ccccc12)NC(=O)[C@H](CCC(=O)O)NC(=O)[C@@H](NC(=O)[C@H](Cc1ccccc1)NC(=O)[C@H](CCC(=O)O)NC(=O)[C@H](CCCCNC(=O)COCCOCCNC(=O)COCCOCCNC(=O)CC[C@H](NC(=O)CCCCCCCCCCCCCCCCCCC(=O)O)C(=O)O)NC(=O)[C@H](C)NC(=O)[C@H](CCCCN)NC(=O)[C@H](CCCCN)NC(=O)[C@H](CCC(=O)O)NC(=O)[C@H](CC(=O)O)NC(=O)[C@H](CC(C)C)NC(=O)[C@H](Cc1ccc(O)cc1)NC(=O)[C@H](CCCCN)NC(=O)[C@H](CO)NC(=O)[C@H](Cc1ccc(O)cc1)NC(=O)[C@H](CC(=O)O)NC(=O)[C@H](CO)NC(=O)[C@@H](NC(=O)C(C)(Cc1ccccc1)NC(=O)[C@@H](NC(=O)CNC(=O)[C@H](CCC(N)=O)NC(=O)C(C)(C)NC(=O)[C@@H](N)Cc1c[nH]cn1)[C@@H](C)O)[C@@H](C)O)C(C)C)C(=O)N[C@@H](CCC(=O)O)C(=O)NCCCCC(=O)N1CCC[C@H]1C(=O)N[C@@H](CO)C(=O)N[C@@H](CO)C(=O)NCC(=O)N[C@@H](C)C(=O)N1CCC[C@H]1C(=O)N1CCC[C@H]1C(=O)N1CCC[C@H]1C(=O)N[C@@H](CO)C(N)=O (stereo partly drawn) [Compound 14]
- EC50 [1]: 2.5 nM
- EC50 [2]: 0.088 nM

Compound: CC(C)C[C@H](NC(=O)[C@H](CC(C)C)NC(=O)[C@H](Cc1c[nH]c2ccccc12)NC(=O)[C@H](CCC(=O)O)NC(=O)[C@@H](NC(=O)[C@H](Cc1ccccc1)NC(=O)[C@H](CCC(=O)O)NC(=O)[C@H](CCCCNC(=O)COCCOCCOCCOCCOCCNC(=O)CCCCC[C@H](NC(=O)CCCCCCCCCCCCCCCCCCC(=O)O)C(=O)O)NC(=O)[C@H](C)NC(=O)[C@H](CCCCN)NC(=O)[C@H](CCCCN)NC(=O)[C@H](CCC(=O)O)NC(=O)[C@H](CC(=O)O)NC(=O)[C@H](CC(C)C)NC(=O)[C@H](Cc1ccc(O)cc1)NC(=O)[C@H](CCCCN)NC(=O)[C@H](CO)NC(=O)[C@H](Cc1ccc(O)cc1)NC(=O)[C@H](CC(=O)O)NC(=O)[C@H](CO)NC(=O)[C@@H](NC(=O)C(C)(Cc1ccccc1F)NC(=O)[C@@H](NC(=O)CNC(=O)[C@H](CCC(N)=O)NC(=O)C(C)(C)NC(=O)[C@@H](N)Cc1c[nH]cn1)[C@@H](C)O)[C@@H](C)O)C(C)C)C(=O)N[C@@H](CCC(=O)O)C(=O)NCCCCC(=O)N1CCC[C@H]1C(=O)N[C@@H](CO)C(=O)N[C@@H](CO)C(=O)NCC(=O)N[C@@H](C)C(=O)N1CCC[C@H]1C(=O)N1CCC[C@H]1C(=O)N1CCC[C@H]1C(=O)N[C@@H](CO)C(N)=O (stereo partly drawn) [Compound 12]
- EC50 [1]: 1.8 nM
- EC50 [2]: 0.0954 nM

Compound: CC(C)C[C@H](NC(=O)[C@H](CC(C)C)NC(=O)[C@H](Cc1c[nH]c2ccccc12)NC(=O)[C@H](CCC(=O)O)NC(=O)[C@@H](NC(=O)[C@H](Cc1ccccc1)NC(=O)[C@H](CCC(=O)O)NC(=O)[C@H](CCCCNC(=O)COCCOCCOCCOCCOCCNC(=O)CCCC[C@H](NC(=O)CCCCCCCCCCCCCCCCCCC(=O)O)C(=O)O)NC(=O)[C@H](C)NC(=O)[C@H](CCCCN)NC(=O)[C@H](CCCCN)NC(=O)[C@H](CCC(=O)O)NC(=O)[C@H](CC(=O)O)NC(=O)[C@H](CC(C)C)NC(=O)[C@H](Cc1ccc(O)cc1)NC(=O)[C@H](CCCCN)NC(=O)[C@H](CO)NC(=O)[C@H](Cc1ccc(O)cc1)NC(=O)[C@H](CC(=O)O)NC(=O)[C@H](CO)NC(=O)[C@@H](NC(=O)C(C)(Cc1ccccc1)NC(=O)[C@@H](NC(=O)CNC(=O)[C@H](CCC(N)=O)NC(=O)C(C)(C)NC(=O)[C@@H](N)Cc1c[nH]cn1)[C@@H](C)O)[C@@H](C)O)C(C)C)C(=O)N[C@@H](CCC(=O)O)C(=O)NCCCCC(=O)N1CCC[C@H]1C(=O)N[C@@H](CO)C(=O)N[C@@H](CO)C(=O)NCC(=O)N[C@@H](C)C(=O)N1CCC[C@H]1C(=O)N1CCC[C@H]1C(=O)N1CCC[C@H]1C(=O)N[C@@H](CO)C(N)=O (stereo partly drawn) [Compound 7]
- EC50 [1]: 2.3 nM
- EC50 [2]: 0.0914 nM

Compound: CC(C)C[C@H](NC(=O)[C@H](CC(C)C)NC(=O)[C@H](Cc1c[nH]c2ccccc12)NC(=O)[C@H](CCC(=O)O)NC(=O)[C@@H](NC(=O)[C@H](Cc1ccccc1)NC(=O)[C@H](CCC(=O)O)NC(=O)[C@H](CCCCNC(=O)COCCOCCNC(=O)COCCOCCNC(=O)CC[C@H](NC(=O)CCCCCCCCCCCCCCCCCCC(=O)O)C(=O)O)NC(=O)[C@H](C)NC(=O)[C@H](CCCCN)NC(=O)[C@H](CCCCN)NC(=O)[C@H](CCC(=O)O)NC(=O)[C@H](CC(=O)O)NC(=O)[C@H](CC(C)C)NC(=O)[C@H](Cc1ccc(O)cc1)NC(=O)[C@H](CCCCN)NC(=O)[C@H](CO)NC(=O)[C@H](Cc1ccc(O)cc1)NC(=O)[C@H](CC(=O)O)NC(=O)[C@H](CO)NC(=O)[C@@H](NC(=O)C(C)(Cc1ccccc1F)NC(=O)[C@@H](NC(=O)CNC(=O)[C@H](CCC(N)=O)NC(=O)C(C)(C)NC(=O)[C@@H](N)Cc1c[nH]cn1)[C@@H](C)O)[C@@H](C)O)C(C)C)C(=O)N[C@@H](CCC(=O)O)C(=O)NCCCCC(=O)N1CCC[C@H]1C(=O)N[C@@H](CO)C(=O)N[C@@H](CO)C(=O)NCC(=O)N[C@@H](C)C(=O)N1CCC[C@H]1C(=O)N1CCC[C@H]1C(=O)N1CCC[C@H]1C(=O)N[C@@H](CO)C(N)=O (stereo partly drawn) [Compound 15]
- EC50 [1]: 1.8 nM
- EC50 [2]: 0.0835 nM

Compound: CC(C)C[C@H](NC(=O)[C@H](CC(C)C)NC(=O)[C@H](Cc1c[nH]c2ccccc12)NC(=O)[C@H](CCC(=O)O)NC(=O)[C@@H](NC(=O)[C@H](Cc1ccccc1)NC(=O)[C@H](CCC(=O)O)NC(=O)[C@H](CCCCNC(=O)COCCOCCOCCOCCOCCNC(=O)CCCCC[C@H](NC(=O)CCCCCCCCCCCCCCCCCCC(=O)O)C(=O)O)NC(=O)[C@H](C)NC(=O)[C@H](CCCCN)NC(=O)[C@H](CCCCN)NC(=O)[C@H](CCC(=O)O)NC(=O)[C@H](CC(=O)O)NC(=O)[C@H](CC(C)C)NC(=O)[C@H](Cc1ccc(O)cc1)NC(=O)[C@H](CCCCN)NC(=O)[C@H](CO)NC(=O)[C@H](Cc1ccc(O)cc1)NC(=O)[C@H](CC(=O)O)NC(=O)[C@H](CO)NC(=O)[C@@H](NC(=O)C(C)(Cc1ccccc1)NC(=O)[C@@H](NC(=O)CNC(=O)[C@H](CCC(N)=O)NC(=O)C(C)(C)NC(=O)[C@@H](N)Cc1c[nH]cn1)[C@@H](C)O)[C@@H](C)O)C(C)C)C(=O)N[C@@H](CCC(=O)O)C(=O)NCCCCC(=O)N1CCC[C@H]1C(=O)N[C@@H](CO)C(=O)N[C@@H](CO)C(=O)NCC(=O)N[C@@H](C)C(=O)N1CCC[C@H]1C(=O)N1CCC[C@H]1C(=O)N1CCC[C@H]1C(=O)N[C@@H](CO)C(N)=O (stereo partly drawn) [Compound 8]
- EC50 [1]: 2.6 nM
- EC50 [2]: 0.105 nM
